Earlier results on 4 substances are cited in patent US11220552B2, “Anti-CD20 combinations for treating tumors” (BIRDIE BIOPHARMACEUTICALS, INC., priority 2016, dated 2022).

Data set [1] concerns rituximab-sensitive and resistant cells.
In a further data set the target is T1, CD20 (Homo sapiens, UniProt P11836).
T1 sequence (P11836 1-297): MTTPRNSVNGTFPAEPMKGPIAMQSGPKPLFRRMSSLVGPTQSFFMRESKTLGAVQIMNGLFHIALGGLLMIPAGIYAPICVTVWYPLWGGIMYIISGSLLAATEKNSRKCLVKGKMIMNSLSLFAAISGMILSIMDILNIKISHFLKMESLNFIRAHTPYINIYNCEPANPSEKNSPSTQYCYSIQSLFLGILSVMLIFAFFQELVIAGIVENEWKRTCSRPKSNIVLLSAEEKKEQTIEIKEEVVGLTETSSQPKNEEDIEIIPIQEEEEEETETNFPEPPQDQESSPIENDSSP
As to conditions: Asp101 instead of Asn101 in CDR3 of variable heavy chain, versus rituximab CDRs.

For data set [2], the system named is three human lymphoma cell lines.

As to “GA101: fully humanized, type II, glycoengineered IgG1 anti-CD20 mAb (Glycart/Roche)”, the “activity in rituximab-resistant cell lines” value in data set [1] (rituximab-resistant cell lines) was “activity”.

“Ocrelizumab: type I second generation humanized anti-CD20 mAb (Genentech/Roche/Biogen)”: in the data set on lymphoid malignancies, the “ADCC activity compared with rituximab” value is listed as “increased” and the “CDC activity compared with rituximab” value is reported as “lower”.

Turning to “Ofatumumab: fully human type I anti-CD20 IgG1kappa mAb (Genmab)”, the “potency compared with rituximab” value in data set [1] (both rituximab-sensitive and resistant cells) is on record as “more potent than rituximab”.

Regarding “Veltuzumab: humanized, type I anti-CD20 IgG1 mAb with CDRs identical to rituximab except Asp101 instead of Asn101”, the off-rates entry in the data set with CD20 is reported as “significantly slower”. Besides, the CDC cytotoxicity entry in data set [2] is “increased”.
